Assay in all cases: biochemical
Common to all, as to set-up: SelectScreen Adapta purified lipid kinase panel, 1 uM compound, 10 uM ATP, per cent inhibition

Experiment [1] addresses PI4K2A (PI4K2 alpha) (Homo sapiens, UniProt Q9BTU6). The following applies: ATP=10; Technology=Adapta; 10 uM ATP. On the procedure: (§1) As PI3KC2α is related to other PI3Ks and to PI3K-like protein kinases such as mTOR, the selectivity of PITCOINs was determined in a panel of biochemical assays. […] Finally, the high specificity of PITCOINs for PI3KC2α was verified by Kinobead profiling experiments. In this approach, the ability of PITCOINs to compete the affinity capture of cellular kinases on immobilized nonselective kinase inhibitors (Kinobeads) is analyzed by mass spectrometry (MS)[31]. […] Four nonkinase weak off-targets were globally found for the three inhibitors with only FECH[32] common to the three PITCOINs (Supplementary Dataset).  Extended Data Fig. 2 Lipid kinase inhibitor profile of PITCOIN1-3. (a–c) Selectivity profiling of PITCOIN1-3 (1 µM) with purified lipid kinases in the presence of 10 µM ATP. […] Data are presented as mean ± SD from two independent experiments. (d, e) IC50 measurements of PITCOIN1-3 against purified recombinant class I PI3K p110α/p85α (d) or purified class III PI3K VPS34 complex II (e). 10 µM ATP and 20 µM PIP3 (for p110α/p85α) or 200 µM PI (for VPS34 complex II) were used as substrates. […] Data are presented as mean ± SD from two independent experiments. Source data

The target of experiment [2] is PI4KB (PI4K beta) (Homo sapiens, UniProt Q9UBF8). Particulars: ATP=10; Technology=Adapta; 10 uM ATP. Here is the method: as §1
Experiment [3] has as its target PIK3C2A (PI3K-C2 alpha) (Homo sapiens, UniProt O00443). The following applies: ATP=10; Technology=Adapta; 10 uM ATP; 1 µM; inhibitor. Here is the method:
as §1

Experiment [4] concerns the target PIK3C2B (PI3K-C2 beta) (Homo sapiens, UniProt O00750). The following applies: ATP=10; Technology=Adapta; 10 uM ATP. Here is the method:
as §1

In experiment [5] the target is T1, PIK3C2G (PI3K-C2 gamma) (Homo sapiens, UniProt O75747).
T1 sequence (O75747 1-1486): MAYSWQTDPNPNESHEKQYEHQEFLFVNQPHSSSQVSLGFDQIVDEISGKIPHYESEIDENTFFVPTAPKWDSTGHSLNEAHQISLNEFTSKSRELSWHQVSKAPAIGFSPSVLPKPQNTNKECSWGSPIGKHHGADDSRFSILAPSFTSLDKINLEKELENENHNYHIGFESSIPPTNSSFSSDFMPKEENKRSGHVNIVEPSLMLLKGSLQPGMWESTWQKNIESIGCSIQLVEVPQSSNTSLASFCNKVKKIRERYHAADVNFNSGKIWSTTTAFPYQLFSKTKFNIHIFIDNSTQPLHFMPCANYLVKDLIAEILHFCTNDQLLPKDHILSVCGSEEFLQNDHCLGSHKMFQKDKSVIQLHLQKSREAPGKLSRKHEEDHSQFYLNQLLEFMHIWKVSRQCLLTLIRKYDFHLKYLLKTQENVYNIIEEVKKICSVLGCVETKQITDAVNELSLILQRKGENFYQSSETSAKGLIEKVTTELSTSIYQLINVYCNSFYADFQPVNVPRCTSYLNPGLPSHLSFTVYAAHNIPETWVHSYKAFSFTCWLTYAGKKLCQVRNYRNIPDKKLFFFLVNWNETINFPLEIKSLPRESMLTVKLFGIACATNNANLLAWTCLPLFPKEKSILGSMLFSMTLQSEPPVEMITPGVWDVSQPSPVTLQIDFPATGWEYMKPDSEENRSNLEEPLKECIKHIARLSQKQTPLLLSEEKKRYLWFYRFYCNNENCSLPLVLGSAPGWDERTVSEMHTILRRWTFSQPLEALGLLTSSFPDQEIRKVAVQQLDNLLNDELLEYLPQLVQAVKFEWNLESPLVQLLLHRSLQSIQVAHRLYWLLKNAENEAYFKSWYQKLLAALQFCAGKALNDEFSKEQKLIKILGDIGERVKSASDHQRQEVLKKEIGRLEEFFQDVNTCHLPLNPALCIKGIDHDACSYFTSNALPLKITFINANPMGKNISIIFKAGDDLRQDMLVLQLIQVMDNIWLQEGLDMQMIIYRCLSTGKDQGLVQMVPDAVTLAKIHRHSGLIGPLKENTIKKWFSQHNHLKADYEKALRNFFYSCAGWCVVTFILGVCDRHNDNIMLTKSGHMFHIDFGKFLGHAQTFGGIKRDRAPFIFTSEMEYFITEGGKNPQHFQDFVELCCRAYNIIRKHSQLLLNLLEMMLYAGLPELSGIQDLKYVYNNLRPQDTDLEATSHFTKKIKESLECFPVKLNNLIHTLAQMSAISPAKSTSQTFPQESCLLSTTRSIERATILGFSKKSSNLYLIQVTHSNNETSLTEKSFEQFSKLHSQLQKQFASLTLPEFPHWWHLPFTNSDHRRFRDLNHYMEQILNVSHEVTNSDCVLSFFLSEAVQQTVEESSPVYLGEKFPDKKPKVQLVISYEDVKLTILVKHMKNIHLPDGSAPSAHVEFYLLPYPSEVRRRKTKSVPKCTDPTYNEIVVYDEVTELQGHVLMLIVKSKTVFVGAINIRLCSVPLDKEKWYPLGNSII
Particulars: ATP=10; Technology=Adapta; 10 uM ATP. On the procedure: as §1

Experiment [6] addresses PIK3C3 (hVPS34) (Homo sapiens, UniProt Q8NEB9). The following applies: ATP=10; Technology=Adapta; 10 uM ATP. On the procedure:
as §1

Experiment [7] has as its target PIK3CA/PIK3R3 (p110 alpha/p55 gamma) (Homo sapiens, UniProt P42336). The following applies: ATP=10; Technology=Adapta; 10 uM ATP. Here is the method: as §1
For experiment [8], the target named is PIK3CB/PIK3R1 (p110 beta/p85 alpha) (Homo sapiens, UniProt P42338). The following applies: ATP=10; Technology=Adapta; 10 uM ATP. On the procedure:
as §1

The target in experiment [9] is PIP5K1A (Homo sapiens, UniProt Q99755). The following applies: ATP=10; Technology=Adapta; 10 uM ATP. On the procedure: as §1
Chain of PIP5K1A (Q99755 whole entry): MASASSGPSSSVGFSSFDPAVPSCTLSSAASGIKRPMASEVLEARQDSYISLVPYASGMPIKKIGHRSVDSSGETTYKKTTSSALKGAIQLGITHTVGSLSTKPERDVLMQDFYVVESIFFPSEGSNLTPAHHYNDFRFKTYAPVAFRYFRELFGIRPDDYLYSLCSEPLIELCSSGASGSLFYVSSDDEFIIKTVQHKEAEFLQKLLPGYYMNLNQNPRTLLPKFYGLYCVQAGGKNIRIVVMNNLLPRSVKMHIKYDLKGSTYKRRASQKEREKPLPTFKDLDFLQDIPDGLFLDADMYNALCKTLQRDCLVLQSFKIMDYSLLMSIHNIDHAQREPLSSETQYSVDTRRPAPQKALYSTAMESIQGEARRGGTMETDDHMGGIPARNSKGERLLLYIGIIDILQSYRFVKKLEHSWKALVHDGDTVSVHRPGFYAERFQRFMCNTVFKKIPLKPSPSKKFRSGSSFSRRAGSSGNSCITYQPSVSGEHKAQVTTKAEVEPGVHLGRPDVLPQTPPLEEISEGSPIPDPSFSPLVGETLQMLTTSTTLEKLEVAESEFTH

Chain of PIK3C2A (PI3K-C2 alpha) (O00443 whole entry): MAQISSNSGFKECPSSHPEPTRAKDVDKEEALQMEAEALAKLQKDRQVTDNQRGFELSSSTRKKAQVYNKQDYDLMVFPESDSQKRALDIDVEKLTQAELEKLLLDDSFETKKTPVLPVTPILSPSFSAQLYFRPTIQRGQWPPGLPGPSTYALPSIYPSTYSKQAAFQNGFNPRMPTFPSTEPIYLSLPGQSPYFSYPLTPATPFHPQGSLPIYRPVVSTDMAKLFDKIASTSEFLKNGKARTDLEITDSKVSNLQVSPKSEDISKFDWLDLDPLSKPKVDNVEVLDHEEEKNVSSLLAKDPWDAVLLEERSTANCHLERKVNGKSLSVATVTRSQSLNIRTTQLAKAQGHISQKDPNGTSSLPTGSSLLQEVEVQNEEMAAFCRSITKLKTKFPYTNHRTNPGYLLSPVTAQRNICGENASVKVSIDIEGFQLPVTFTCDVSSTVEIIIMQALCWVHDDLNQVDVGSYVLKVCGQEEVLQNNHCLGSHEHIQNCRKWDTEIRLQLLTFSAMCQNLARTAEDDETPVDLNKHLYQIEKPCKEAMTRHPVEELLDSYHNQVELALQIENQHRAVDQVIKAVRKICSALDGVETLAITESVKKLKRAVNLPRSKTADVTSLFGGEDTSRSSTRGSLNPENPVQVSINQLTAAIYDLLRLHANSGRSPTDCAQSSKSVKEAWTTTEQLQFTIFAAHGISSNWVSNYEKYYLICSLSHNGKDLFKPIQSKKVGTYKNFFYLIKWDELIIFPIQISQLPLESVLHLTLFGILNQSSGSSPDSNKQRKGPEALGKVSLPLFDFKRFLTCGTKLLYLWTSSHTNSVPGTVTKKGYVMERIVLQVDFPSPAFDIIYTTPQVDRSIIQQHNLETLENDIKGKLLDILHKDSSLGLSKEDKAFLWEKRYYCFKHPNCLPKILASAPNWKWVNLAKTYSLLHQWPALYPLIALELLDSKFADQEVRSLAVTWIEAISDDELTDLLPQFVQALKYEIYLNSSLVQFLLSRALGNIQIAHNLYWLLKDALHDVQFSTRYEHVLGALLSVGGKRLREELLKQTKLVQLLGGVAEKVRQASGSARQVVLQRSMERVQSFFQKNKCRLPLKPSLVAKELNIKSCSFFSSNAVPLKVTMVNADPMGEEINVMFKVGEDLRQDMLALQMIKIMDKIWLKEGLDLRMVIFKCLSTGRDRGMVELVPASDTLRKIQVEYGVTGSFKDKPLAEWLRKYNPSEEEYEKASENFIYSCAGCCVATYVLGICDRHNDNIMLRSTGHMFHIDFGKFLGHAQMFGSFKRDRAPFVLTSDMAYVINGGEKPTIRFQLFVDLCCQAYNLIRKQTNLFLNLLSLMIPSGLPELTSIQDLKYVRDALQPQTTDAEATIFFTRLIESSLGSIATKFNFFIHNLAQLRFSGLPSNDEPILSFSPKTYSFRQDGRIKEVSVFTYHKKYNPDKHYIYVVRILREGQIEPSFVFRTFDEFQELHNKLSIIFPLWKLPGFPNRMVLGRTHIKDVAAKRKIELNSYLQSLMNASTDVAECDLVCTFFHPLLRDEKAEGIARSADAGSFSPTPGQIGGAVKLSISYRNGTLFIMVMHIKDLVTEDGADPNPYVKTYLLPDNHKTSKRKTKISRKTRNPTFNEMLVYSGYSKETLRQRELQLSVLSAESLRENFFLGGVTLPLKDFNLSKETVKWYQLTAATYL
Chain of PIK3C3 (hVPS34) (Q8NEB9 whole entry): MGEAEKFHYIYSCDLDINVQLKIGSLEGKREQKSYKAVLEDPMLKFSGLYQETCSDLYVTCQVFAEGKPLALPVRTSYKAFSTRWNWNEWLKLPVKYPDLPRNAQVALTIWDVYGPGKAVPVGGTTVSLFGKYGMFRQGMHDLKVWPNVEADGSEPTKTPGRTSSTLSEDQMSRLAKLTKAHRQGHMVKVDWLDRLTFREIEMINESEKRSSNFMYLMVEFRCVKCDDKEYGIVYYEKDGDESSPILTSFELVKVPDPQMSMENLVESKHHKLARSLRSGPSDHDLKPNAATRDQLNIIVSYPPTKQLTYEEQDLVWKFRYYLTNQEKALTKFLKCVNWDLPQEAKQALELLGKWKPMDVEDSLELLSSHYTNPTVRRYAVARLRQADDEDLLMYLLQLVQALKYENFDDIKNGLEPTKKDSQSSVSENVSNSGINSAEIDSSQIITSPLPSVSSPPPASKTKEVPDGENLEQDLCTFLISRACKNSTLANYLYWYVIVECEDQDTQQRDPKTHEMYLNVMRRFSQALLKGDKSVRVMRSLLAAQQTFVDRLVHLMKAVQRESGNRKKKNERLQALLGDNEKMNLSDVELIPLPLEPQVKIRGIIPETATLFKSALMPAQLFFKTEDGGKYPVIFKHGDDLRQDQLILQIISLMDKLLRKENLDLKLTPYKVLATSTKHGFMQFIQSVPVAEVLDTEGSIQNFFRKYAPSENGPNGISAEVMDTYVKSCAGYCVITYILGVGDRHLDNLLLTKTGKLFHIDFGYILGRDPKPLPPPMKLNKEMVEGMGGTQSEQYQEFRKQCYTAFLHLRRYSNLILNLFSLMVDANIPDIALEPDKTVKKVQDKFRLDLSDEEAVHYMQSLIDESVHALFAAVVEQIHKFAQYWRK
Chain of PI4K2A (PI4K2 alpha) (Q9BTU6 whole entry): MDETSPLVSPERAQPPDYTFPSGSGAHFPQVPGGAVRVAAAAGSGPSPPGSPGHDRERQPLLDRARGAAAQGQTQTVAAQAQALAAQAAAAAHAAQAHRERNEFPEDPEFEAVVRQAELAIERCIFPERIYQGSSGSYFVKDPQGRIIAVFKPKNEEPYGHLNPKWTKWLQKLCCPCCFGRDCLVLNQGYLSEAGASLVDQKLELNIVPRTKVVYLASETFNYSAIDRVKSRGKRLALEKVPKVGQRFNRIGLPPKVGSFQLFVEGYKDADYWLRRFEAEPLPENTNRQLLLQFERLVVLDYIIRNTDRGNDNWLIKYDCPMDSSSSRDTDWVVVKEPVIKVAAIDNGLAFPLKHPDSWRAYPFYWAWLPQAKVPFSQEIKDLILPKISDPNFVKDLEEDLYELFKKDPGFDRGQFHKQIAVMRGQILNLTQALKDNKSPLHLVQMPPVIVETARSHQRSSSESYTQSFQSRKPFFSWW
Chain of PI4KB (PI4K beta) (Q9UBF8 whole entry): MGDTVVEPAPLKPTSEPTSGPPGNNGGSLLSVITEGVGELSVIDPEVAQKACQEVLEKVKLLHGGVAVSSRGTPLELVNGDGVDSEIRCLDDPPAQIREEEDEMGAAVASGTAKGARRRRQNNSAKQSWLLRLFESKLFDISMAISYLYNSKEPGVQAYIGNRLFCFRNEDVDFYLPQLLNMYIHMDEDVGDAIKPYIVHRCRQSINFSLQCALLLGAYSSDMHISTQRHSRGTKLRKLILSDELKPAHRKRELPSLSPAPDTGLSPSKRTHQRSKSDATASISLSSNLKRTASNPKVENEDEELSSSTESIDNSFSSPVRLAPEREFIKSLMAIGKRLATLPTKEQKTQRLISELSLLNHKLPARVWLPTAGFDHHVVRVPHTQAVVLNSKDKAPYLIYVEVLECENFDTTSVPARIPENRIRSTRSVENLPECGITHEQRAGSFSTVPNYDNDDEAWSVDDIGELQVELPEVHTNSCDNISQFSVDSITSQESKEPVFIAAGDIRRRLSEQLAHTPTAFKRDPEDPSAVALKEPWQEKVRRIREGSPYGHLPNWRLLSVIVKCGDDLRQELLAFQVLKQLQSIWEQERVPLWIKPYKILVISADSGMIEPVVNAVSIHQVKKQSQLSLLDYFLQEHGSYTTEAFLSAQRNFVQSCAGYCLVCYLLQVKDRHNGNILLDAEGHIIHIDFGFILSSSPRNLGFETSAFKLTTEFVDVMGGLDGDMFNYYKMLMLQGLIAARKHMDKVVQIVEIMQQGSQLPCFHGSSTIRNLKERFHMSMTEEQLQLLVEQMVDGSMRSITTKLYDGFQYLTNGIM

Usually inhibition stands for the change of the read-out against control, counted positive when it falls. Take `O=C(CSc1nc2nccnc2c(=O)n1CCc1ccccc1)Nc1nccs1` [compound 1, PITCOIN1]: the inhibition at 1 µM in experiment [1] is 8%; in [2] it was 4%; in experiment [4], 12%; in experiment [5] it was 30%; in [6] it was -14%; in [7], -6%. In addition, the inhibition at 1 µM is 10% in experiment [8] and 4% in [9]. In experiment [3], the “% Inhibition Avg” value turned out to be 88%.
`O=C(CSc1nc2nccnc2c(=O)n1CCc1ccccc1)Nc1nc(-c2cccc(O)c2)cs1` [compound 2, PITCOIN2]: the inhibition at 1 µM in experiment [1] is 4%; in experiment [2], 3%; in experiment [4], 40%; in experiment [5], 9%; in experiment [6], 7%; in experiment [7], -10%. The inhibition at 1 µM is 13% in [8] and -6% in [9]. The “% Inhibition Avg” value in [3] was 87%.
Take `CS(=O)(=O)Nc1cccc(-c2csc(NC(=O)CSc3nc4nccnc4c(=O)n3CCc3ccccc3)n2)c1` [compound 3, PITCOIN3]: the inhibition at 1 µM in experiment [1] came to 1%; in experiment [2], 13%; in [4] it was 9%; in experiment [5], 6%; in experiment [6] it was 2%; in experiment [7], 5%. In addition, the inhibition at 1 µM was 12% in experiment [8] and -7% in experiment [9]. In addition, in experiment [3], the “% Inhibition Avg” value was 83%.

For the origin of these results see publication PMC7613998, “Development of selective inhibitors of phosphatidylinositol 3-kinase C2α” (Nature Chemical Biology, 2022).
